Data as given in ChEMBL document CHEMBL4020784, “Syntheses of prodrug-type phosphotriester oligonucleotides responsive to intracellular reducing environment for improvement of cell membrane permeability and nuclease resistance” (Bioorg Med Chem Lett, 2017).

Key:
[1] = Metabolic stability in 10% fetal bovine serum assessed as compound remaining at 37 degC by RP-HPLC method; assay type: ADME, cell-free, Bos taurus; conditions: cattle
[2] = Chemical stability in CD3CN up to 7 days by 31P NMR method; assay type: physicochemical; conditions: read-out: Stability

Cc1cn([C@H]2C[C@H](OP(=O)(O)OC[C@H]3O[C@@H](n4cc(C)c(=O)[nH]c4=O)C[C@@H]3OP(=O)(O)OC[C@H]3O[C@@H](n4cc(C)c(=O)[nH]c4=O)C[C@@H]3OP(=O)(O)OC[C@H]3O[C@@H](n4cc(C)c(=O)[nH]c4=O)C[C@@H]3OP(=O)(O)OC[C@H]3O[C@@H](n4cc(C)c(=O)[nH]c4=O)C[C@@H]3OP(=O)(O)OC[C@H]3O[C@@H](n4cc(C)c(=O)[nH]c4=O)C[C@@H]3OP(=O)(O)OC[C@H]3O[C@@H](n4cc(C)c(=O)[nH]c4=O)C[C@@H]3OP(=O)(O)OC[C@H]3O[C@@H](n4cc(C)c(=O)[nH]c4=O)C[C@@H]3OP(=O)(O)OC[C@H]3O[C@@H](n4cc(C)c(=O)[nH]c4=O)C[C@@H]3OP(=O)(O)OC[C@H]3O[C@@H](n4cc(C)c(=O)[nH]c4=O)C[C@@H]3O)[C@@H](CO)O2)c(=O)[nH]c1=O
half-life [1]: < 1.5 h

Cc1cn([C@H]2C[C@H](OP(=O)(O)OC[C@H]3O[C@@H](n4cc(C)c(=O)[nH]c4=O)C[C@@H]3OP(=O)(O)OC[C@H]3O[C@@H](n4cc(C)c(=O)[nH]c4=O)C[C@@H]3OP(=O)(O)OC[C@H]3O[C@@H](n4cc(C)c(=O)[nH]c4=O)C[C@@H]3OP(=O)(O)OC[C@H]3O[C@@H](n4cc(C)c(=O)[nH]c4=O)C[C@@H]3OP(=O)(O)OC[C@H]3O[C@@H](n4cc(C)c(=O)[nH]c4=O)C[C@@H]3OP(=O)(O)OC[C@H]3O[C@@H](n4cc(C)c(=O)[nH]c4=O)C[C@@H]3OP(=O)(O)OC[C@H]3O[C@@H](n4cc(C)c(=O)[nH]c4=O)C[C@@H]3OP(=O)(O)OC[C@H]3O[C@@H](n4cc(C)c(=O)[nH]c4=O)C[C@@H]3OP(=O)(OC[C@H]3O[C@@H](n4cc(C)c(=O)[nH]c4=O)C[C@@H]3O)O[C@@H]3CSSC[C@H]3OCc3ccccc3)[C@@H](CO)O2)c(=O)[nH]c1=O (stereo partly drawn)
half-life [1]: > 23.3 h

COc1ccc(C(OC[C@H]2O[C@@H](n3cc(C)c(=O)[nH]c3=O)C[C@@H]2OP(OC2CSSCC2OCc2ccccc2)N(C(C)C)C(C)C)(c2ccccc2)c2ccc(OC)cc2)cc1 (stereo partly drawn)
remaining at 168 h [2]: 95%
